The target in assay [1] is T1, rat intestinal fatty acid binding protein (rI-FABP, SEQ ID NO: 3) variant L24P19C7, 14R 18L 38V 60R 73F 106C 115R 117D, SEQ ID NO: 36 (Rattus norvegicus, UniProt P02693, A74F/L39V/L73A/M19L/Q116R/R107C/V61R/Y118D/Y15R).
T1 construct: made in house
The assay is described as follows: bilirubin binding to L24P19C7 probe (fluorescence titration). As to the method:
Also described are analytical/mathematical methods for calibrating and using the bilirubin probes. Bilirubin probes are calibrated to determine their binding affinity for bilirubin (dissociation constant Kd) under conditions, such as temperature, pH and solution composition, that correspond to samples in which it is desired to know the unbound bilirubin concentration. Binding isotherms are performed in aqueous buffer by measuring the change in fluorescence of the bilirubin probes in response to increasing bilirubin concentrations (“titration data”). The set of fluorescence responses at each bilirubin concentration are fitted with an appropriate equation (“calibration equation”) that correctly describes the fluorescence response as a function of the bilirubin concentration, the probe concentration, specific spectroscopic characteristics, and the Kd. […] Bilirubin probes are derived from a rat intestinal fatty acid binding protein (rI-FABP) as described previously for unbound FFA (FFAu) probes in U.S. Pat. No. 7,601,510, U.S. publication 2010/0298162 and [Huber A H, Zhu […] and […]. Fluorescence Sensor for the Quantification of Unbound Bilirubin Concentrations. Clin Chem 58: 869-876, 2012; Huber […], Zhu B and […]. Fatty acid-specific fluorescent probes and their use in resolving mixtures of different unbound free fatty acids in equilibrium with albumin. […]

Assay [2] addresses T2, rI-FABP (SEQ ID NO: 3) variant BL22P1B11, MGI-KR14-14R 18L 25C 27A 38V 60R 73F 106L 115R 117D, SEQ ID NO: 35 (Rattus norvegicus, UniProt P02693, A74F/K101R/K126R/K17R/K21R/K28A/K30R/K38R/K47R/K51R/K89R/K8R/K93R/K95R/L39V/L73A/M19L/Q116R/R107L/V26C/V61R/Y118D/Y15R).
T2 construct: made in house
The format is binding. To be noted: Table 5, Alexa Fluor 680 C2-maleimide; read-out: Kd.

Assay [3] addresses rI-FABP (SEQ ID NO: 3) variant L2P14 F7, 18G 31M 72A (Rattus norvegicus, UniProt P02693, G32M/L73A/M19G). The assay is described as follows: bilirubin binding to L2P14F7 probe. Conditions: Table 6, acrylodan. As to the method:
(§1) Also described are analytical/mathematical methods for calibrating and using the bilirubin probes. Bilirubin probes are calibrated to determine their binding affinity for bilirubin (dissociation constant Kd) under conditions, such as temperature, pH and solution composition, that correspond to samples in which it is desired to know the unbound bilirubin concentration. Binding isotherms are performed in aqueous buffer by measuring the change in fluorescence of the bilirubin probes in response to increasing bilirubin concentrations (“titration data”). The set of fluorescence responses at each bilirubin concentration are fitted with an appropriate equation (“calibration equation”) that correctly describes the fluorescence response as a function of the bilirubin concentration, the probe concentration, specific spectroscopic characteristics, and the Kd.

The target in assay [4] is T3, rI-FABP (SEQ ID NO: 3) variant L2P14 F7 - K27C, 18G 27C 31M 72A (Rattus norvegicus, UniProt P02693, G32M/K28C/L73A/M19G).
T3 construct: made in house
T3 sequence (P02693 with tags, fused parts or gaps M19G/K28C/G32M/L73A): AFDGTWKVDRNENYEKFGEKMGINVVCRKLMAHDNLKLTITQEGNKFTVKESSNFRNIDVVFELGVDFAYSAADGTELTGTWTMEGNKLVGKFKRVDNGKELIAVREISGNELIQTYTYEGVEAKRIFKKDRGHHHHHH
In words: bilirubin binding to L2P14F7-K27C probe. Conditions: Table 5, acrylodan. The protocol: as §1

The target in assay [5] is T4, rI-FABP (SEQ ID NO: 3) variant L2P14F7-MGCFD, MGCFD - 18G 31M 72A (Rattus norvegicus, UniProt P02693, A2G/G32M/INS2C/L73A/M19G).
T4 construct: made in house
T4 sequence (P02693 with tags, fused parts or gaps M19G/G32M/L73A): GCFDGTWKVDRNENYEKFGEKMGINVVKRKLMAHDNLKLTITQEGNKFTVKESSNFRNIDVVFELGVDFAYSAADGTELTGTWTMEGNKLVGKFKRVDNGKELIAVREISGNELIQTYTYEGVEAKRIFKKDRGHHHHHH
In words: bilirubin binding to L2P14F7-MGCFD probe. Conditions: Table 5, Texas Red C2-Maleimide. The protocol: as §1

For assay [6], the target named is T5, rI-FABP (SEQ ID NO: 3) variant L10P9 E6, 14T 18L 73M 117C 72A (Rattus norvegicus, UniProt P02693, A74M/L73A/M19L/Y118C/Y15T).
T5 construct: made in house
T5 sequence (P02693 with tags, fused parts or gaps Y15T/M19L/L73A/A74M/Y118C): as the sequence (P02693 with tags, fused parts or gaps M19G/K28C/G32M/L73A) above, with Y14T, G18L, C27K, M31G, A73M, Y117C counted along it
The assay is described as follows: bilirubin binding to L10P9E6 probe. Conditions: Table 5, acrylodan. The protocol:
as §1

Assay [7] concerns the target T6, rI-FABP (SEQ ID NO: 3) variant L22P33 A10, 38R 72A 73N 106S 115C (Rattus norvegicus, UniProt P02693, A74N/L39R/L73A/Q116C/R107S).
T6 construct: made in house
In words: bilirubin binding to L22P33A10 probe. To be noted: Table 5, acrylodan. The protocol:
as §1

Assay [8] deals with T7, rI-FABP (SEQ ID NO: 3) variant L24P19 C7 K27A, 14R 18L 27A 38V 60R 73F 106C 115R 117D (Rattus norvegicus, UniProt P02693, A74F/K28A/L39V/L73A/M19L/Q116R/R107C/V61R/Y118D/Y15R).
T7 construct: made in house
T7 sequence (P02693 with tags, fused parts or gaps Y15R/M19L/K28A/L39V/V61R/L73A/A74F/R107C/Q116R/Y118D): as the sequence (P02693 with tags, fused parts or gaps M19G/K28C/G32M/L73A) above, with Y14R, G18L, C27A, M31G, L38V, V60R, A73F, R106C, Q115R, Y117D counted along it
The assay is described as follows: bilirubin binding to L24P19C7 K27A probe. To be noted: Table 5, acrylodan. As to the method:
as §1

Assay [9] concerns the target T8, rI-FABP (SEQ ID NO: 3) variant L24P19 C7 K27K 24C, 14R 18L 24C 38V 60R 73F 106C 115R 117D (Rattus norvegicus, UniProt P02693, A74F/L39V/L73A/M19L/N25C/Q116R/R107C/V61R/Y118D/Y15R).
T8 construct: made in house
The assay is described as follows: bilirubin binding to L24P19C7 24C probe. Conditions: Table 5, acrylodan. As to the method: as §1
. […] The optimal probe performance was obtained with cysteine at positions 25 or 26.

The target in assay [10] is T9, rI-FABP (SEQ ID NO: 3) variant L24P19 C7, 14R 18L 27A 38V 60R 73F 106A 115R 117D (Rattus norvegicus, UniProt P02693, A74F/K28A/L39V/L73A/M19L/Q116R/R107A/V61R/Y118D/Y15R).
T9 construct: Residues 27 and 106 disputed: row prints 27A 106A
T9 sequence (P02693 with tags, fused parts or gaps Y15R/M19L/K28A/L39V/V61R/L73A/A74F/R107A/Q116R/Y118D): as the sequence (P02693 with tags, fused parts or gaps M19G/K28C/G32M/L73A) above, with Y14R, G18L, C27A, M31G, L38V, V60R, A73F, R106A, Q115R, Y117D counted along it
The assay is described as follows: bilirubin binding to L24P19 C7 as listed in Table 6. To be noted: Table 6, acrylodan. The protocol:
as §1

Assay [11] has as its target T10, rI-FABP (SEQ ID NO: 3) variant BL2P2 B6, 14R 18L 31C 38V 60R 73V 106A 115R 117D (Rattus norvegicus, UniProt P02693, A74V/G32C/L39V/L73A/M19L/Q116R/R107A/V61R/Y118D/Y15R).
T10 construct: made in house
The assay is described as follows: bilirubin binding to BL2P2B6 probe. To be noted: Table 5, acrylodan. The protocol:
as §1

Kd data for one compound are collected here from patent US10295551B2, “Development and use of fluorescent probes of unbound bilirubin” (Alan Marc Kleinfeld, priority 2011, dated 2019).

pKd: −log10 of the molar value.

As usually defined, the pKd is the negative decadic logarithm of the Kd, by convention in mol/L.

T1 sequence (P02693 with tags, fused parts or gaps Y15R/M19L/L39V/V61R/L73A/A74F/R107C/Q116R/Y118D): as the sequence (P02693 with tags, fused parts or gaps M19G/K28C/G32M/L73A) above, with Y14R, G18L, C27K, M31G, L38V, V60R, A73F, R106C, Q115R, Y117D counted along it
T8 sequence (P02693 with tags, fused parts or gaps Y15R/M19L/N25C/L39V/V61R/L73A/A74F/R107C/Q116R/Y118D): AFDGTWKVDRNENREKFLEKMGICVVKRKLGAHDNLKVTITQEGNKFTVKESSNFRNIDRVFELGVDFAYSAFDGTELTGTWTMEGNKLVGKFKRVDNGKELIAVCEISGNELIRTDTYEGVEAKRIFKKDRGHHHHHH
T2 sequence (P02693 with tags, fused parts or gaps with the stated changes): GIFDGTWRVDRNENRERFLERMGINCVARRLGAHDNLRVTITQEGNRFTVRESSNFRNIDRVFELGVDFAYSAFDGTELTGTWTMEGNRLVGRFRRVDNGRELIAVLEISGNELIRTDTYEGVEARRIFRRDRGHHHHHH
T10 sequence (P02693 with tags, fused parts or gaps Y15R/M19L/G32C/L39V/V61R/L73A/A74V/R107A/Q116R/Y118D): as the sequence (P02693 with tags, fused parts or gaps Y15R/M19L/N25C/L39V/V61R/L73A/A74F/R107C/Q116R/Y118D) above, with C24N, G31C, F73V, C106A counted along it
Chain of rI-FABP (SEQ ID NO: 3) variant L2P14 F7, 18G 31M 72A (P02693 with tags, fused parts or gaps M19G/G32M/L73A): as the sequence (P02693 with tags, fused parts or gaps M19G/K28C/G32M/L73A) above, with C27K counted along it
T6 sequence (P02693 with tags, fused parts or gaps L39R/L73A/A74N/R107S/Q116C): as the sequence (P02693 with tags, fused parts or gaps M19G/K28C/G32M/L73A) above, with G18M, C27K, M31G, L38R, A73N, R106S, Q115C counted along it

In the case of `C=CC1=C(C)/C(=C/c2[nH]c(Cc3[nH]c(/C=C4\NC(=O)C(C)=C4C=C)c(C)c3CCC(=O)O)c(CCC(=O)O)c2C)NC1=O` [bilirubin], the pKd in assay [1] (22° C., aqueous bilirubin, acrylodan label) is 7.66; in assay [1] (Table 5, acrylodan) it was 7.46; in [2] it was 6.96; in [3], 7.16; in [4], 6.60; in assay [5], 6.40. The pKd in [6] is 5.84; in assay [7], 6.61; in [8] it was 7.68; in assay [9] it was 7.05; in assay [10], 7.48; in [11], 6.86.
